# Results published in patent US20250236608A1, “EGFR INHIBITORS” (Blueprint Medicines Corporation, priority 2022, published 2025).
# pIC50: −log10 of the molar value.
# Assays:
# EGFR (d746-750) = EGFR (d746-750) (Homo sapiens (Human), UniProt P00533, DEL746-750); assay: Biochemical EGFR inhibition assay, EGFR (d746-750); conditions: Caliper mobility shift; 1.0 mM ATP or ATP Km; read-out: Enz EGFR_Exon19-del746-750 IC50
# EGFR L858R = EGFR L858R (Homo sapiens (Human), UniProt P00533, L858R); assay: Biochemical EGFR inhibition assay, EGFR L858R; conditions: Caliper mobility shift; 1.0 mM ATP or ATP Km; read-out: Enz EGFR_L858R IC50
# EGFR L858R, sequence (P00533 25-1210 L858R): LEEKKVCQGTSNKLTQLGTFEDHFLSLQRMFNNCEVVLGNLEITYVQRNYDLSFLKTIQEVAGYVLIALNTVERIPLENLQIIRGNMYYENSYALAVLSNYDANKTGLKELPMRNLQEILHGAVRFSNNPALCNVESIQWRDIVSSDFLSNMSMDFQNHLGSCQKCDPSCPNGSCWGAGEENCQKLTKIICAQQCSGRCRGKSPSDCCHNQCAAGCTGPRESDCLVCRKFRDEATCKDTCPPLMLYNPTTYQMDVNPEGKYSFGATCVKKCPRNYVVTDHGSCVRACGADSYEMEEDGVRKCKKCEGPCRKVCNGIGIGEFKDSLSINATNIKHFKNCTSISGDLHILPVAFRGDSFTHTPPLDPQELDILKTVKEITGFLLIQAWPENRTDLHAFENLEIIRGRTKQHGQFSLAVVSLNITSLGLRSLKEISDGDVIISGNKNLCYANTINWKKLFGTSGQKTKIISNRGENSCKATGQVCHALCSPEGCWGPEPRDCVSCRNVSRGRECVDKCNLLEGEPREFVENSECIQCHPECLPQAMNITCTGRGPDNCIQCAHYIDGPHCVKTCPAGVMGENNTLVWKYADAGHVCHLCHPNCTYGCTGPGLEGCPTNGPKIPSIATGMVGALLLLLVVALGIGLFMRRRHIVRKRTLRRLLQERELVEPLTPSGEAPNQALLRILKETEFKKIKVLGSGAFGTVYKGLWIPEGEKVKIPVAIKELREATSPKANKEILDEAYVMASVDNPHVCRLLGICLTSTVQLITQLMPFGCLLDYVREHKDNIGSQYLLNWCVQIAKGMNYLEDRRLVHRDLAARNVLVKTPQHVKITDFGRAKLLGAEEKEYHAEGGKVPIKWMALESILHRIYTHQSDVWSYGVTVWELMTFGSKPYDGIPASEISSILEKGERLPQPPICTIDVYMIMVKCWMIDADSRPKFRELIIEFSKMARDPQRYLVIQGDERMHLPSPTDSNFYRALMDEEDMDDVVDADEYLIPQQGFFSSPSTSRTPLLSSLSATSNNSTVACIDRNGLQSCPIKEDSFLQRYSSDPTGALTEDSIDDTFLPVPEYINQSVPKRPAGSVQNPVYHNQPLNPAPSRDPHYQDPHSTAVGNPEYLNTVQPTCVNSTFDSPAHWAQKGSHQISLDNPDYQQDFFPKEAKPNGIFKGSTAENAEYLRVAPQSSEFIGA
# [1] = target: pEGFR (Tyr1068) in PC-9 cells (Ex19Del) (Homo sapiens (Human), UniProt P00533, DEL746-750); assay: PC-9 pEGFR AlphaLISA assay; type: cell-based; conditions: 4 hours incubation, p-EGFR (Tyr1068) AlphaLISA, read-out: Ext pEGFR_PC-9 Ex19Del IC50
# pEGFR (Tyr1068) in PC-9 cells (Ex19Del), sequence (P00533 other isoform, or with tags, fused parts or gaps del 746-750): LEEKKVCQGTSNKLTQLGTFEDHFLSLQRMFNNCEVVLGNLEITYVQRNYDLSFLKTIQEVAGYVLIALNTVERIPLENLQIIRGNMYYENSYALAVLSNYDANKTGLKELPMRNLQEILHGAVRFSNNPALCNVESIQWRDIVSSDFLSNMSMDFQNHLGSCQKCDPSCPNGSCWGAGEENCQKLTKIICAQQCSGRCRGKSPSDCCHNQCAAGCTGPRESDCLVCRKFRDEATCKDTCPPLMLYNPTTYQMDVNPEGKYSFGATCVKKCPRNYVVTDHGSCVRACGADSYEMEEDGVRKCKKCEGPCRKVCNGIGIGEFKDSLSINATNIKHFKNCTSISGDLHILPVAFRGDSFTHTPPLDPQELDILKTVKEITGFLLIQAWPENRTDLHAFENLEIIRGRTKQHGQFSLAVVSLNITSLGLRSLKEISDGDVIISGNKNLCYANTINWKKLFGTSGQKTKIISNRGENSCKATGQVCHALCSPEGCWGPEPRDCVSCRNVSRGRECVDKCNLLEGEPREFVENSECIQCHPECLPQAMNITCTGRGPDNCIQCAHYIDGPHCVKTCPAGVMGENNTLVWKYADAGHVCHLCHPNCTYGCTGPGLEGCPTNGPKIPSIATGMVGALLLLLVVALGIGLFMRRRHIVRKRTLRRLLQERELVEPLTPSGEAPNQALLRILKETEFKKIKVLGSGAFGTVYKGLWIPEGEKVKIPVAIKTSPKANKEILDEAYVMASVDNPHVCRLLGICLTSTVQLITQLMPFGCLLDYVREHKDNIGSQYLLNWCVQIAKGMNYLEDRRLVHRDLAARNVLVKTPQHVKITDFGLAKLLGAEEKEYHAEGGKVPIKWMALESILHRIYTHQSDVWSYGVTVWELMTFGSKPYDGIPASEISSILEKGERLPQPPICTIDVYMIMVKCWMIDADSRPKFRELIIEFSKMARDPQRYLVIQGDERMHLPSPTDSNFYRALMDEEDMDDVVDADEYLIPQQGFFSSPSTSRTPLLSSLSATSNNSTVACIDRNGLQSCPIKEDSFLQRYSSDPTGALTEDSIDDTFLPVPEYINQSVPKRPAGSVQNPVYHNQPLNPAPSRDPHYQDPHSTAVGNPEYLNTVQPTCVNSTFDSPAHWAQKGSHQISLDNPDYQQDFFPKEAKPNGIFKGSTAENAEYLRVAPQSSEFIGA
# How it was run: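 Compounds are added in ten 4-fold dilutions to adherent cells grown in serum-containing (10% FBS) phenol-free DMEM and left for 4 hours at 37° C. Phosphorylated receptor in lysates is quantified by bead-based AlphaLISA. IC50 values derive from inhibition plotted against log dose.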
# EGFR (d746-750), sequence (P00533 other isoform, or with tags, fused parts or gaps del 1-694/del 746-750 limits assumed): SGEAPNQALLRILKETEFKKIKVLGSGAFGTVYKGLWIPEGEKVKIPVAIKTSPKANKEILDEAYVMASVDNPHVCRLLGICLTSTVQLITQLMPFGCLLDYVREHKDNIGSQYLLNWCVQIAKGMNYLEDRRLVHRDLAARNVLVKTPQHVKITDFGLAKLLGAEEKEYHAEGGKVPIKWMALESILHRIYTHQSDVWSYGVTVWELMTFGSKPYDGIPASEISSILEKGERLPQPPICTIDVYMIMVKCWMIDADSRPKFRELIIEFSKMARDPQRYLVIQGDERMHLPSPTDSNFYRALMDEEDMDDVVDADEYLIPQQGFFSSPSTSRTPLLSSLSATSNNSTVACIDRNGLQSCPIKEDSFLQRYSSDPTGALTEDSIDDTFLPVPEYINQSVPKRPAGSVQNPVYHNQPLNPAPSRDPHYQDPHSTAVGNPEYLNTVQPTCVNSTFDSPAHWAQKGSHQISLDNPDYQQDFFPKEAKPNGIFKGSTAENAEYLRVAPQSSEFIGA
Structure (SMILES),pIC50 (EGFR (d746-750)),pIC50 (EGFR L858R),pIC50 [1]
"COc1cc2ncnc(-c3cn(C)nc3-c3ccccc3)c2cc1NC(=O)[C@H](C)N(C)C (single isomer, unassigned) [Example 237, (R)-2-(dimethylamino)-N-(7-methoxy-4-(1-methyl-3-phenyl-1H-pyrazol-4-yl)quinazolin-6-yl) propenamide or (S)-2-(dimethylamino)-N-(7-methoxy-4-(1-methyl-3-phenyl-1H-pyrazol-4-yl)quinazolin-6-yl) propenamide]",8.70,8.27,8.18
"COc1cc2ncnc(-c3cn(C4COC4)nc3-c3ccccc3)c2cc1OC(=O)N1CCN(C)C[C@@H]1C [Example 69, 7-methoxy-4-(1-(oxetan-3-yl)-3-phenyl-1H-pyrazol-4-yl)quinazolin-6-yl (S)-2,4-dimethylpiperazine-1-carboxylate]",8.51,8.15,8.24
"COc1cc2ncnc(-c3cn(C)nc3-c3ccccc3)c2cc1NC(=O)c1ccccc1N1CCNCC1 [Example 227, N-(7-methoxy-4-(1-methyl-3-phenyl-1H-pyrazol-4-yl)quinazolin-6-yl)-2-(piperazin-1-yl)benzamide]",8.57,7.82,8.17
"COc1cc2ncnc(-c3cn(C)nc3-c3ccccc3)c2cc1OC(=O)N1CCOCC12CC2 [Example 65, 7-methoxy-4-(1-methyl-3-phenyl-1H-pyrazol-4-yl)quinazolin-6-yl 7-oxa-4-azaspiro[2.5]octane-4-carboxylate]",8.60,8.21,8.60
"COc1cc2ncnc(-c3cn(C)nc3-c3ccccc3)c2nc1OC(C)c1nnnn1C (stereo not drawn) [Example 29, 7-methoxy-6-(1-(1-methyl-1H-tetrazol-5-yl)ethoxy)-4-(1-methyl-3-phenyl-1H-pyrazol-4-yl)pyrido[3,2-d]pyrimidine]",8.72,8.32,7.95
"COc1cc2ncnc(-c3cn(C)nc3-c3ccccc3)c2cc1NC(=O)[C@H](C)CN(C)C (single isomer, unassigned) [Example 239, (R)-3-(dimethylamino)-N-(7-methoxy-4-(1-methyl-3-phenyl-1H-pyrazol-4-yl)quinazolin-6-yl)-2-methylpropanamide or (S)-3-(dimethylamino)-N-(7-methoxy-4-(1-methyl-3-phenyl-1H-pyrazol-4-yl)quinazolin-6-yl)-2-methylpropanamide]",8.77,8.39,8.40
"COCCOc1cc2ncnc(-c3cn(CC(F)F)nc3-c3ccccc3)c2cc1OC [Example 16, 4-(1-(2,2-difluoroethyl)-3-phenyl-1H-pyrazol-4-yl)-6-methoxy-7-(2-methoxyethoxy)quinazoline]",8.92,8.74,8.68
"CCC(=O)Nc1cc2c(-c3cn(C4CCOCC4)nc3-c3ccccc3)ncnc2cc1OC [Example 248, N-(7-methoxy-4-(3-phenyl-1-(tetrahydro-2H-pyran-4-yl)-1H-pyrazol-4-yl)quinazolin-6-yl)propionamide]",8.82,8.70,8.89
"COc1cc2ncnc(-c3cn(C)nc3-c3ccccc3)c2cc1OC(=O)N1C[C@H](C)OC[C@@H]1C (racemic) [Example 92, cis-rac-7-methoxy-4-(1-methyl-3-phenyl-1H-pyrazol-4-yl)quinazolin-6-yl (2R,5S)-2,5-dimethylmorpholine-4-carboxylate or trans-rac-7-methoxy-4-(1-methyl-3-phenyl-1H-pyrazol-4-yl)quinazolin-6-yl (2S,5S)-2,5-dimethylmorpholine-4-carboxylate]",8.47,8.03,7.87
"COc1cc2ncnc(-c3cn(C)nc3-c3ccccc3)c2cc1NC(=O)c1ccc(F)cc1 [Example 222, 4-fluoro-N-(7-methoxy-4-(1-methyl-3-phenyl-1H-pyrazol-4-yl)quinazolin-6-yl)benzamide]",9.05,8.82,8.82

# More lines, now with the values ahead:
pIC50 (EGFR (d746-750)),pIC50 (EGFR L858R),pIC50 [1],Structure (SMILES)
8.64,8.35,8.11,"COc1cc2ncnc(-c3cn(C)nc3-c3ccccc3)c2cc1NC(=O)C12COCC1C2 (stereo not drawn) [Example 278, N-(7-methoxy-4-(1-methyl-3-phenyl-1H-pyrazol-4-yl)quinazolin-6-yl)-3-oxabicyclo[3.1.0]hexane-1-carboxamide]"
8.92,8.72,8.70,"CCn1cc(-c2ncnc3cc(OC)c(NC(=O)[C@@]45COC[C@@H]4C5)cc23)c(-c2ccccc2)n1 [Example 288, (1R,5R)—N-(4-(1-ethyl-3-phenyl-1H-pyrazol-4-yl)-7-methoxyquinazolin-6-yl)-3-oxabicyclo[3.1.0]hexane-1-carboxamide]"
6.63,7.09,6.08,COc1cc2ncnc(-c3cnn(CC(F)F)c3-c3ccc(F)cc3)c2cc1C1(O)CC1 [Example 490]
9.40,9.15,8.77,"Cn1cc(-c2cc(F)c3c(-c4cn(C)nc4-c4ccccc4)ncnc3c2)cn1 [Example 439, 5-fluoro-7-(1-methyl-1H-pyrazol-4-yl)-4-(1-methyl-3-phenyl-1H-pyrazol-4-yl)quinazoline]"
9.15,8.60,9.10,"CCOc1cc2ncnc(-c3cn(C)nc3-c3ccccc3)c2nc1NC(=O)[C@]12COC[C@H]1C2 (single isomer, unassigned) [Example 379, (1S,5S)—N-(7-ethoxy-4-(1-methyl-3-phenyl-1H-pyrazol-4-yl)pyrido[3,2-d]pyrimidin-6-yl)-3-oxabicyclo[3.1.0]hexane-1-carboxamide or (1R,5R)—N-(7-ethoxy-4-(1-methyl-3-phenyl-1H-pyrazol-4-yl)pyrido[3,2-d]pyrimidin-6-yl)-3-oxabicyclo[3.1.0]hexane-1-carboxamide]"
8.92,8.72,8.64,"COc1cc2ncnc(-c3cn(C)nc3-c3c(F)cccc3F)c2cc1NC(=O)C1CC1 [Example 338, N-(4-(3-(2,6-difluorophenyl)-1-methyl-1H-pyrazol-4-yl)-7-methoxyquinazolin-6-yl)cyclopropanecarboxamide]"
9.22,8.70,8.96,"[2H]C([2H])([2H])n1cc(-c2ncnc3cc(OC)c(NC(=O)C4(C(F)(F)F)CC4)nc23)c(-c2ccccc2)n1 [Example 320, N-(7-methoxy-4-(1-(methyl-d3)-3-phenyl-1H-pyrazol-4-yl)pyrido[3,2-d]pyrimidin-6-yl)-1-(trifluoromethyl)cyclopropane-1-carboxamide]"
8.46,8.17,7.95,"COc1cc2ncnc(-c3cn(C)nc3-c3ccccc3)c2cc1NC(=O)C12CC(F)(C1)C2 [Example 342, 3-fluoro-N-(7-methoxy-4-(1-methyl-3-phenyl-1H-pyrazol-4-yl)quinazolin-6-yl)bicyclo[1.1.1]pentane-1-carboxamide]"
8.89,8.26,8.28,"COc1cc2ncnc(-c3c[nH]nc3-c3ccc(F)cc3)c2nc1NC(=O)[C@]12COC[C@H]1C2 [Example 467, (1S,5S)—N-{4-[3-(4-fluorophenyl)-1H-pyrazol-4-yl]-7-methoxypyrido[3,2-d]pyrimidin-6-yl}-3-oxabicyclo[3.1.0]hexane-1-carboxamide]"
9.00,8.80,9.40,"COc1cc2ncnc(-c3cn(C)nc3-c3ccccc3)c2nc1NC(=O)[C@H]1C[C@H]2C[C@H]2N1C [Example 419, (1R,3R,5R)—N-(7-methoxy-4-(1-methyl-3-phenyl-1H-pyrazol-4-yl)pyrido[3,2-d]pyrimidin-6-yl)-2-methyl-2-azabicyclo[3.1.0]hexane-3-carboxamide]"
8.96,8.74,9.10,"CCn1cc(C(=O)Nc2cc3c(-c4cn(CC(F)F)nc4-c4ccccc4)ncnc3cc2OC)cn1 [Example 268, N-(4-(1-(2,2-difluoroethyl)-3-phenyl-1H-pyrazol-4-yl)-7-methoxyquinazolin-6-yl)-1-ethyl-1H-pyrazole-4-carboxamide]"
9.00,8.77,9.10,"COc1cc2ncnc(-c3cn(C)nc3-c3ccccc3)c2nc1NC(=O)C1CC1 [Example 355, N-(7-methoxy-4-(1-methyl-3-phenyl-1H-pyrazol-4-yl)pyrido[3,2-d]pyrimidin-6-yl)cyclopropanecarboxamide]"
9.00,8.10,8.34,"COc1cc2ncnc(-c3cn(C)nc3-c3ccccc3)c2nc1NC(=O)C1(OC)CC1 [Example 436, 1-methoxy-N-(7-methoxy-4-(1-methyl-3-phenyl-1H-pyrazol-4-yl)pyrido[3,2-d]pyrimidin-6-yl)cyclopropane-1-carboxamide]"
9.00,8.64,8.80,"COc1cc2ncnc(-c3cn(CC(F)F)nc3-c3ccccc3)c2nc1NC(=O)[C@@]12C[C@@H]1CN(C)C2 (single isomer, unassigned) [Example 397, (1R,5R)—N-(4-(1-(2,2-difluoroethyl)-3-phenyl-1H-pyrazol-4-yl)-7-methoxypyrido[3,2-d]pyrimidin-6-yl)-3-methyl-3-azabicyclo[3.1.0]hexane-1-carboxamide or (1S,5S)—N-(4-(1-(2,2-difluoroethyl)-3-phenyl-1H-pyrazol-4-yl)-7-methoxypyrido[3,2-d]pyrimidin-6-yl)-3-methyl-3-azabicyclo[3.1.0]hexane-1-carboxamide]"
